# Results as given in patent US11912652B1, “8-(2-hydroxybenzylideneamino)naphthalene-1,3-disulfonic acid as an antioxidant compound” (KING FAISAL UNIVERSITY, priority 2023, dated 2024).
# Assay: DPPH (2,2-diphenyl-1-picrylhydrazyl) radical scavenging antioxidant test
# Assay type: biochemical
# Conditions: 517 nm; for Inhibition (radical scavenging inhibition): 0.2 mL DPPH (0.75 mM), compound 3 μM in ethanol, 30 minutes in the dark
# Procedure: The antioxidant properties of the 8-(2-hydroxybenzylideneamino)naphthalene-1,3-disulfonic acid compound were studied by adding 0.2 mL DPPH (0.75 mM)) to 8-(2-hydroxybenzylideneamino)naphthalene-1,3-disulfonic acid (III) (3 μM) in ethanol. After 30 minutes of incubation in the dark, the absorbance was read against a blank at 517 nm. Ascorbic acid (vitamin C) was used as standard antioxidants (positive control). A blank sample was prepared by 0.2 ml of DPPH in 3 mL ethanol. A negative control sample was run using ethanol instead of the sample. The radical scavenging inhibition was calculated using the following equation: […]
# The antioxidant activity for the synthesized compound is listed in Table 1, using Vitamin C as a reference.
Compound,Inhibition (radical scavenging inhibition),"antioxidant potential compared to vitamin C (in words) (DPPH in vitro test, vitamin C as positive control)"
"O=C1O[C@H]([C@@H](O)CO)C(O)=C1O [vit c, Ascorbic acid, reference compound]",74%,–
"O=S(=O)(O)c1cc(S(=O)(=O)O)c2c(/N=C/c3ccccc3O)cccc2c1 [Product III, 8-(2-hydroxybenzylideneamino)naphthalene-1,3-disulfonic acid]",54%,high potential as an antioxidant
